Entries after “also recorded” stand apart in the source; their conditions may differ.
Key:
[1] = Plasma pharmacokinetics of t-TUCB after intravenous administration; assay type: in vivo, horses; details: for AUClast (h*ng/mL)/dose: dose-corrected; for AUClast (h*ng/mL)/dose / Clast (last measured plasma concentration) / Tlast (time of last measured plasma concentration) / λz lower / λz upper: mean ± SEM; for Plasma kinetics (order): preliminary
[2] = test system: horses with lipopolysaccharide-induced radiocarpal synovitis; assay: Pain; assay type: in vivo; details: for Horses qualifying for rescue analgesia if only VAS > 50 at rest had been used: control 5/6; for Proportion of positive-to-negative responses to touch (tactile allodynia): control 1.7; for AUC of AAEP lameness scores compared to control / AUC of visual analog pain scores compared to control: first 12 h and entire 48 h
[3] = test system: horses with lipopolysaccharide-induced radiocarpal synovitis; assay type: in vivo
[4] = Synovial fluid t-TUCB concentrations after intravenous administration; assay type: in vivo; details: horses, i.v., 1 mg/kg
horses [5] = assay: Physical exam variables, hematology and serum biochemistry; assay type: in vivo
[6] = test system: equine soluble epoxide hydrolase (sEH); details: ref Guedes et al., 2016, cited from earlier work
rats = details: doses as low as 0.1 mg/kg, ref Wagner et al., 2013; cited from earlier work
horses [7] = details: clinical cases, ref Johnson et al., 1993, Raekallio et al., 1997; cited from earlier work
horses [8] = details: 4 mg/kg i.v., ref Toutain et al., 1994; cited from earlier work
[9] = Thoroughbred, Quarter Horse, Dutch Warmblood (mixed group), plasma, iv, 1 mg/kg
[10] = Thoroughbred, Quarter Horse, Dutch Warmblood, plasma, iv, 0.1 mg/kg
[11] = Thoroughbred, Quarter Horse, Dutch Warmblood, plasma, iv, 0.3 mg/kg
[12] = horses, i.v., 0.1 mg/kg, plasma
[13] = horses, i.v., 0.3 mg/kg, plasma

Q: For `O=C(Nc1ccc(OC(F)(F)F)cc1)N[C@H]1CC[C@H](Oc2ccc(C(=O)O)cc2)CC1` [t-TUCB, trans-4-{4-[3-(4-Trifluoromethoxy-phenyl)-ureido]-cyclohexyloxy}-benzoic acid], which Vd [1, 9] is on record?
A: 0.571 ± 0.104 L/kg

Q: What about the clearance [1, 9] of the same molecule?
A: 0.233 mL/min/kg

Q: And the half-life [1, 9]?
A: 24 ± 5 h

Q: What about the AUC(0-inf) [1, 10] of the same molecule?
A: 2000 ± 530 ng·h/mL

Q: And the AUC(0-t) [1, 10]?
A: 1610 ± 360 ng·h/mL

Q: What about the AUC(0-inf) [1, 11] of the same molecule?
A: 6370 ± 526 ng·h/mL

Q: And the AUC(0-t) [1, 11]?
A: 5840 ± 488 ng·h/mL

Q: What about the AUC(0-t) ([1]; Thoroughbred, Quarter Horse, Dutch Warmblood, plasma, iv, 1 mg/kg) of the same molecule?
A: 50100 ± 5600 ng·h/mL

Q: What about the “AUClast (h*ng/mL)/dose” value ([1]; horses, i.v., 0.1 mg/kg) of the same molecule?
A: 16066±3595^a h*ng/mL

Q: And the “AUClast (h*ng/mL)/dose” value ([1]; horses, i.v., 0.3 mg/kg)?
A: 19467±1625^a h*ng/mL

Q: What about the “AUClast (h*ng/mL)/dose” value ([1]; horses, i.v., 1 mg/kg) of the same molecule?
A: 50139±5604^b h*ng/mL

Q: What about the Plasma concentrations ([1]; horses, i.v., 0.03 mg/kg) of the same molecule?
A: undetectable or very low

Q: And the “Clast (last measured plasma concentration)” value [1, 12]?
A: 17 ± 5 ng/mL

Q: What about the “Tlast (time of last measured plasma concentration)” value (from here on “Tlast”) [1, 12] of the same molecule?
A: 38 ± 5 h

Q: And the λz lower [1, 12]?
A: 8 ± 4 h

Q: What about the λz upper [1, 12] of the same molecule?
A: 38 ± 5 h

Q: And the “Clast (last measured plasma concentration)” value [1, 13]?
A: 29 ± 3 ng/mL

Q: And the “Tlast” value [1, 13]?
A: 48 ± 0 h

Q: What about the λz lower [1, 13] of the same molecule?
A: 11 ± 5 h

Q: And the λz upper [1, 13]?
A: 48 ± 0 h

Q: And the “Clast (last measured plasma concentration)” value ([1]; horses, i.v., 1 mg/kg, plasma)?
A: 538 ± 76 ng/mL

Q: What about the “Tlast” value ([1]; horses, i.v., 1 mg/kg, plasma) of the same molecule?
A: 48 ± 0 h

Q: What about the λz lower ([1]; horses, i.v., 1 mg/kg, plasma) of the same molecule?
A: 14 ± 5 h

Q: And the λz upper ([1]; horses, i.v., 1 mg/kg, plasma)?
A: 48 ± 0 h

Q: And the “Plasma kinetics (order)” value ([1]; horses, i.v., 0.1 and 0.3 mg/kg)?
A: linear or first order plasma kinetics

Q: And the “Plasma kinetics (order)” value ([1]; horses, i.v., highest dose (1 mg/kg))?
A: may have approached a non-linear or zero order kinetics

Q: And the clearance ([1]; plasma, iv, 0.1 mg/kg)?
A: 1.13 mL/min/kg

Q: What about the clearance ([1]; plasma, iv, 0.3 mg/kg) of the same molecule?
A: 0.8 mL/min/kg

Q: What about the AUC(0-inf) ([1]; plasma, iv, 1 mg/kg) of the same molecule?
A: 71100 ± 5780 ng·h/mL

Q: And the clearance ([1]; plasma, iv, 1 mg/kg)?
A: 0.233 mL/min/kg

Q: And the half-life ([1]; plasma, iv, 1 mg/kg)?
A: 24 ± 5 h

Q: And the “Horses qualifying for rescue analgesia if only VAS > 50 at rest had been used” value (“Horses qualifying” below) ([2]; 0.03 mg/kg i.v.)?
A: 5/6

Q: What about the “Proportion of positive-to-negative responses to touch (tactile allodynia)” value (“Proportion” below) ([2]; 0.1 mg/kg i.v.) of the same molecule?
A: 0.8

Q: And the “Horses qualifying” value ([2]; 0.1 mg/kg i.v.)?
A: 4/6

Q: What about the “Proportion” value ([2]; 0.3 mg/kg i.v.) of the same molecule?
A: 1.3

Q: What about the “Horses qualifying” value ([2]; 0.3 mg/kg i.v.) of the same molecule?
A: 1/4

Q: What about the “Proportion” value ([2]; 1 mg/kg i.v.) of the same molecule?
A: 0.2

Q: What about the “Horses qualifying” value ([2]; 1 mg/kg i.v.) of the same molecule?
A: 2/5

Q: What about the “AUC of AAEP lameness scores compared to control” value ([2]; 1 mg/kg i.v.) of the same molecule?
A: significantly lower

Q: And the “AUC of visual analog pain scores compared to control” value ([2]; 1 mg/kg i.v.)?
A: significantly lower

Q: And the “AUC of AAEP lameness scores compared to control” value ([2]; 0.1 and 0.3 mg/kg i.v.)?
A: not the others

Q: And the “AUC of visual analog pain scores compared to control” value ([2]; 0.1 and 0.3 mg/kg i.v.)?
A: not the others

Q: And the “Carpus circumference compared to control” value ([3]; 1 mg/kg i.v., at 36 h)?
A: reaching statistical significance

Q: What about the “Anti-inflammatory activity (inflammatory cell numbers, joint effusion, protein concentration)” value ([3]; 0.1-1 mg/kg i.v.) of the same molecule?
A: no important anti-inflammatory effects; also recorded: negligible anti-inflammatory activity

Q: What about the “Carpus circumference compared to the remaining treatments” value ([3]; 0.3 and 1 mg/kg i.v.) of the same molecule?
A: increased slightly less

Q: And the “Synovial fluid concentrations reached” value [4]?
A: high concentrations

Q: What about the “Synovial fluid t-TUCB concentration, inflamed compared to non-inflamed joint” value [4] of the same molecule?
A: significantly higher

Q: And the “Adverse effects on physical and laboratory examinations” value (horses [5]; 0.03-1 mg/kg i.v.)?
A: No adverse effects were observed

Q: And the “Effect of treatment on respiratory rate, heart rate and mean arterial pressure” value (horses [5]; 0.1, 0.3 and 1 mg/kg i.v., after LPS)?
A: not of treatment

Q: What about the “Hematology and serum biochemistry results” value (horses [5]; all treatments (0.03-1 mg/kg i.v.)) of the same molecule?
A: within the normal laboratory reference range

Q: What about the “In vitro 95% inhibitory concentration (IC95)” value ([6]; equine sEH) of the same molecule?
A: 0.0964 µg/mL

Q: And the “Potency against equine sEH compared to rat sEH” value ([6]; in vitro, Wagner et al., 2013)?
A: approximately 3 fold

Q: And the “Mechanical hyperalgesia to intra-plantar LPS” value (rats)?
A: significantly attenuated

Q: For `CCCCC1C(=O)N(c2ccccc2)N(c2ccccc2)C1=O` [phenylbutazone], which “Duration of post-surgical analgesia” value (horses [7]) is on record?
A: < 12 h

Q: What about the “Analgesic effects in carpal Freund's adjuvant arthritis model” value (horses [8]) of the same molecule?
A: not readily demonstrated; also recorded: could not be demonstrated
